Experimental data from patent US9253983B2, “Triazole compound and use thereof” (KUREHA CORPORATION, priority 2011, dated 2016).

What was measured:
[1] = test system: Microdochium nivale; experiment: Test 1 for antifungal effect, plate medium: M.n; format: cell-based; details: PDA plate medium
Description: (§1) Compound (1-1a) or Compound (1-2a) was dissolved in dimethyl sulfoxide, and the resulting solution was added to a PDA medium (potato dextrose-agar medium) at about 60° C. The medium and the solution were mixed thoroughly in a conical flask, poured into a petri dish, and allowed to solidify. In this way, a plate medium containing Compound (1-1a) or Compound (1-2a) at a certain concentration was prepared.
(§2) Meanwhile, test microorganisms cultured on a plate medium in advance were cut out with the use of a cork borer 4 mm in diameter, and were inoculated onto the compound-containing plate medium. After the inoculation, the microorganisms were cultured at their optimum growth temperatures (for example, refer to LIST OF CULTURES 1996 microorganisms 10th edition, Institute for Fermentation (foundation)) for 1 day to 7 days, and their growth was determined by measuring the diameter of their flora. The extent of growth of the microorganisms on the compound-containing plate medium was compared with that of microorganisms on a plate medium where no compound was added, and mycelial growth inhibition rate was calculated by the following equation: R=100(dc−dt)/dc where R is mycelial growth inhibition rate (%), dc is the flora diameter in untreated plate, and dt is the flora diameter in plate treated with the compound.
(§3) A larger antifungal index indicates a better antifungal effect.

[2] = test system: Gaeumannomyces graminis; experiment: Test 1 for antifungal effect, plate medium: G.g; format: cell-based; details: PDA plate medium
Description: as §1, §2, §3

[3] = test system: Phaeosphaeria nodorum; experiment: Test 1 for antifungal effect, plate medium: P.n; format: cell-based; details: PDA plate medium
Description: as §1, §2, §3

[4] = test system: Sclerotinia sclerotiorum; experiment: Test 1 for antifungal effect, plate medium: S.s; format: cell-based; details: PDA plate medium
Description: as §1, §2, §3

[5] = test system: Gibberella fujikuroi; experiment: Test 1 for antifungal effect, plate medium: G.f; format: cell-based; details: PDA plate medium
Description: as §1, §2, §3

[6] = test system: wheat; experiment: Growth inhibition (adverse effects) of seed treatment on wheat seeds; format: in vivo; details: for Growth inhibition index: wheat, 20 days after sowing
Description: A pot experiment was performed to evaluate the growth inhibition (adverse effects) caused by the seed treatment. Compound (1-1a) and Compound (1-2a), each of which was dissolved in DMSO to make up such a concentration that the seeds would be treated in treatment amount of 2 g to 200 g ai/100 kg seeds, were each applied to wheat seeds in a vial, and thereafter 8 wheat seeds were sowed in an 80-cm^2 pot. The pot was kept in a greenhouse with water supplied to its bottom. 20 days after the sowing, a growth measure of wheat was evaluated. A growth inhibition index was calculated based on the criteria shown by Table 10. In Table 10, a smaller growth inhibition index indicates a lesser adverse effect of growth inhibition caused by the treatment with the use of a plant disease controlling agent.

[7] = test system: Pyrenophora graminea; experiment: Test 2 for antifungal effect, plate medium: P.g; format: cell-based; details: PDA plate medium
Description: as §1, with “(1-1b)” for “(1-1a)”, “(1-2b)” for “(1-2a)”
Meanwhile, test microorganisms cultured on a plate medium in advance were cut out with the use of a cork borer 4 mm in diameter, and were inoculated onto the compound-containing plate medium. After the inoculation, the pathogens were cultured at their optimum growth temperatures (for example, refer to LIST OF CULTURES 1996 microorganisms 10th edition, Institute for Fermentation (foundation)) for 1 day to 7 days, and their growth was determined by measuring the diameter of their flora. The extent of growth of the pathogens on the compound-containing plate medium was compared with that of pathogens on a plate medium where no compound was added, and mycelial growth inhibition rate was calculated as in Experiment Example 10. Note that, in Experiment Example 11, controls used in the antifungal effect tests are Compound (1-1a) and Compound (1-2a) instead of Compound (1-1b) and Compound (1-2b), respectively.
The results were rated on a 1-to-5 scale as in Experiment Example 10.

[8] = test system: Puccinia recondita; experiment: Efficacy of seed treatment on wheat brown rust; format: in vivo; details: wheat seed treatment 20 g ai/100 kg seeds, 12 days after inoculation
Description: A pot experiment was performed to evaluate the efficacy of seed treatment in controlling wheat leaf rust. Compound (1-1a) and Compound (1-2a), each of which was dissolved in DMSO to make up such a concentration that the seeds would be treated in treatment amount of 20 g ai/100 kg seeds, were each applied to wheat seeds in a vial, and thereafter 8 wheat seeds were sowed on an 80-cm^2 pot. The pot was kept in a greenhouse with water supplied to its bottom. 21 days after the sowing, the wheat seeds were inoculated with Puccinia recondita, and kept in a wet box for 2 days. After that, the pot was again kept in the greenhouse with water supplied to its bottom. 12 days after the inoculation, the percentage of affected area was found, and the protective value was calculated by the following equation. Protective value (%)=(1−(Percentage of affected area in treated region/Percentage of affected area in untreated region))×100

[9] = test system: wheat; experiment: Necrosis (adverse effects) of seed treatment on wheat seeds; format: in vivo; details: 20 days after sowing
Description: A pot experiment was performed to evaluate necrosis (adverse effects) caused by the seed treatment. Compound (1-1a) and Compound (1-2a), each which was dissolved in DMSO to make up such a concentration that the seeds would be treated in treatment amount of 2 g to 200 g ai/100 kg seeds, were each applied to wheat seeds in a vial, and thereafter 8 wheat seeds were sowed in an 80-cm^2 pot. The pot was kept in a greenhouse with water supplied to its bottom. 20 days after the sowing, an extent of necrosis (percentage of necrotic surface area) of wheat was evaluated. A necrosis index was derived from the percentage of the necrotic surface area, based on the criteria shown by Table 13. In Table 13, a smaller necrosis index indicates a lesser adverse effect of necrosis caused by the treatment with the use of a plant disease controlling agent.

[10] = treatment amount 2 g ai/100 kg seeds
[11] = treatment amount 20 g ai/100 kg seeds
[12] = treatment amount 200 g ai/100 kg seeds

SMILES	Antifungal index (mycelial growth inhibition rate) ([1]; 0.16 mg/L)	Antifungal index (mycelial growth inhibition rate) ([1]; 0.31 mg/L)	Antifungal index (mycelial growth inhibition rate) ([1]; 0.63 mg/L)	Antifungal index (mycelial growth inhibition rate) ([1]; 1.25 mg/L)	Antifungal index (mycelial growth inhibition rate) ([1]; 2.50 mg/L)	Antifungal index (mycelial growth inhibition rate) ([2]; 0.16 mg/L)	Antifungal index (mycelial growth inhibition rate) ([2]; 0.31 mg/L)	Antifungal index (mycelial growth inhibition rate) ([2]; 0.63 mg/L)	Antifungal index (mycelial growth inhibition rate) ([2]; 1.25 mg/L)	Antifungal index (mycelial growth inhibition rate) ([2]; 2.50 mg/L)	Antifungal index (mycelial growth inhibition rate) ([3]; 0.16 mg/L)	Antifungal index (mycelial growth inhibition rate) ([3]; 0.31 mg/L)	Antifungal index (mycelial growth inhibition rate) ([3]; 0.63 mg/L)	Antifungal index (mycelial growth inhibition rate) ([3]; 1.25 mg/L)	Antifungal index (mycelial growth inhibition rate) ([3]; 2.50 mg/L)	Antifungal index (mycelial growth inhibition rate) ([4]; 0.16 mg/L)	Antifungal index (mycelial growth inhibition rate) ([4]; 0.31 mg/L)	Antifungal index (mycelial growth inhibition rate) ([4]; 0.63 mg/L)	Antifungal index (mycelial growth inhibition rate) ([4]; 1.25 mg/L)	Antifungal index (mycelial growth inhibition rate) ([4]; 2.50 mg/L)	also measured
CC1(CCl)CCC(Cc2ccc(Cl)cc2)C1(O)Cn1cncn1 (single isomer, unassigned) [Compound (1-1b), (1,2-cis, 1,5-cis)-5-(4-chlorobenzyl)-2-chloromethyl-2-methyl-1-(1H-1,2,4-triazole-1-ylmethyl)cyclopentanol]	1 (Less than 60%)	1 (Less than 60%)	1 (Less than 60%)	2 (Less than 70% but not less than 60%)	3 (Less than 80% but not less than 70%)	1 (Less than 60%)	1 (Less than 60%)	2 (Less than 70% but not less than 60%)	5 (90% or greater)	5 (90% or greater)	2 (Less than 70% but not less than 60%)	2 (Less than 70% but not less than 60%)	2 (Less than 70% but not less than 60%)	3 (Less than 80% but not less than 70%)	5 (90% or greater)	3 (Less than 80% but not less than 70%)	5 (90% or greater)	5 (90% or greater)	5 (90% or greater)	5 (90% or greater)	Antifungal index (mycelial growth inhibition rate) ([5]; 0.16 mg/L): 3 (Less than 80% but not less than 70%); Antifungal index (mycelial growth inhibition rate) ([5]; 0.31 mg/L): 4 (Less than 90% but not less than 80%); Antifungal index (mycelial growth inhibition rate) ([5]; 0.63 mg/L): 5 (90% or greater); Antifungal index (mycelial growth inhibition rate) ([5]; 1.25 mg/L): 5 (90% or greater); Antifungal index (mycelial growth inhibition rate) ([5]; 2.50 mg/L): 5 (90% or greater); Growth inhibition index [6, 10]: 0 (50% or more); Growth inhibition index [6, 11]: 4 (Less than 20% but 10% or more); Growth inhibition index [6, 12]: 4 (Less than 20% but 10% or more); Antifungal index (mycelial growth inhibition rate) ([7]; 0.04 mg/L): 3 (Less than 80% but not less than 70%); Antifungal index (mycelial growth inhibition rate) ([7]; 0.08 mg/L): 4 (Less than 90% but not less than 80%); Antifungal index (mycelial growth inhibition rate) ([7]; 0.16 mg/L): 5 (90% or greater); Antifungal index (mycelial growth inhibition rate) ([7]; 0.31 mg/L): 5 (90% or greater); Antifungal index (mycelial growth inhibition rate) ([7]; 0.63 mg/L): 5 (90% or greater); Antifungal index (mycelial growth inhibition rate) ([7]; 1.25 mg/L): 5 (90% or greater); Protective value (%) [8]: 63%; Necrosis index [9, 10]: 0 (Less than 1%); Necrosis index [9, 11]: 2 (Less than 20% but not less than 5%); Necrosis index [9, 12]: 2 (Less than 20% but not less than 5%)
CC1(CCl)CCC(Cc2ccc(F)cc2)C1(O)Cn1cncn1 (single isomer, unassigned) [Compound (1-2b), (1,2-cis, 1,5-cis)-5-(4-fluorobenzyl)-2-chloromethyl-2-methyl-1-(1H-1,2,4-triazole-1-ylmethyl)cyclopentanol]	1 (Less than 60%)	1 (Less than 60%)	1 (Less than 60%)	1 (Less than 60%)	2 (Less than 70% but not less than 60%)	1 (Less than 60%)	1 (Less than 60%)	4 (Less than 90% but not less than 80%)	5 (90% or greater)	5 (90% or greater)	1 (Less than 60%)	1 (Less than 60%)	2 (Less than 70% but not less than 60%)	3 (Less than 80% but not less than 70%)	5 (90% or greater)	3 (Less than 80% but not less than 70%)	5 (90% or greater)	5 (90% or greater)	5 (90% or greater)	5 (90% or greater)	Antifungal index (mycelial growth inhibition rate) ([5]; 0.16 mg/L): 3 (Less than 80% but not less than 70%); Antifungal index (mycelial growth inhibition rate) ([5]; 0.31 mg/L): 4 (Less than 90% but not less than 80%); Antifungal index (mycelial growth inhibition rate) ([5]; 0.63 mg/L): 5 (90% or greater); Antifungal index (mycelial growth inhibition rate) ([5]; 1.25 mg/L): 5 (90% or greater); Antifungal index (mycelial growth inhibition rate) ([5]; 2.50 mg/L): 5 (90% or greater); Growth of the treated seeds ([6]; wheat seed treatment 20 g ai/100 kg seeds (seen in the brown rust seed treatment test)): inhibited; Growth inhibition index [6, 10]: 0 (50% or more); Growth inhibition index [6, 11]: 4 (Less than 20% but 10% or more); Growth inhibition index [6, 12]: 5 (Less than 10%); Antifungal index (mycelial growth inhibition rate) ([7]; 0.04 mg/L): 4 (Less than 90% but not less than 80%); Antifungal index (mycelial growth inhibition rate) ([7]; 0.08 mg/L): 5 (90% or greater); Antifungal index (mycelial growth inhibition rate) ([7]; 0.16 mg/L): 5 (90% or greater); Antifungal index (mycelial growth inhibition rate) ([7]; 0.31 mg/L): 5 (90% or greater); Antifungal index (mycelial growth inhibition rate) ([7]; 0.63 mg/L): 5 (90% or greater); Antifungal index (mycelial growth inhibition rate) ([7]; 1.25 mg/L): 5 (90% or greater); Necrosis index [9, 10]: 0 (Less than 1%); Necrosis index [9, 11]: 3 (20% or more); Necrosis index [9, 12]: 3 (20% or more)
